Structures are written as SMILES.

The target of this assay is Dual specificity protein phosphatase 3 (Homo sapiens) (UniProt P51452). In words: PubChem AID 2004. As to conditions: recombinant VHR phosphatase, colorimetric substrate read-out.
Sequence of Dual specificity protein phosphatase 3 (Homo sapiens) (P51452 whole entry, looked up): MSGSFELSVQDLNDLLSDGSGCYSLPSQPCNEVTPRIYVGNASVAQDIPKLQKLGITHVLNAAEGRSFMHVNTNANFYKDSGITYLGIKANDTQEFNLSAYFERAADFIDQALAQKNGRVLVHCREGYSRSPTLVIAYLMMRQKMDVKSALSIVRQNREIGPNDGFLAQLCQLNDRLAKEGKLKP
The term Ki denotes the dissociation constant of the complex between target and ligand, obtained from inhibition or displacement. `Cc1ccc(C)n1-c1ccc(SCC(=O)O)cc1`: the Ki is 2.09 µM.
As for `O=C1NC(=O)N(c2cccc(Br)c2)C(=O)/C1=C/c1ccc(-c2ccc(C(=O)O)cc2)o1`, the figure is 16.2 µM; as for `O=C1C(Cl)=C/C(=N\S(=O)(=O)c2ccc(Cl)cc2)C(Cl)=C1Cl`, 13.4 µM.
As for `O=C(/C=C/c1ccco1)/C=C/c1ccc(-c2ccc(Cl)c(Cl)c2)o1`, the figure is 15.9 µM.
Take `O=C(/C=C/c1ccc(-c2ccccc2[N+](=O)[O-])o1)Nc1ccc(-c2nc3ccccc3o2)cc1`: the Ki was 1.76 µM.
The result for `O=C1/C(=C/C=C/c2ccccc2)SC(=S)N1CCS(=O)(=O)O` reads 0.809 µM; that for `COc1ccc(OC)c2c1C(=O)c1ccccc1C2=O`, 3.07 µM.
The result for `O=C(O)c1cccc(-c2ccc(/C=N/Nc3ccc([N+](=O)[O-])cn3)o2)c1` reads 13.8 µM.
As for `CC1=C(C#N)c2nc(N)c(C#N)c(C)c2/C1=C/c1ccc(-c2ccc(C(=O)O)c(Cl)c2)o1`, the figure is 3.87 µM.
In the case of `C=CCN1C(=O)/C(=C\C=C\c2ccco2)C(=O)NC1=S`, the Ki is 15.8 µM.
As to `O=C(O)C(Cc1ccccc1)N1C(=O)/C(=C/C=C/c2ccccc2)SC1=S` (stereo not drawn), the Ki is 2.01 µM.
As for `O=c1[nH]c(=S)n(-c2cccc(Cl)c2)c(O)c1/C=C1/C=CC=N1`, the figure is 3.49 µM.
Take `O=C1NC(=S)N(c2ccc(F)cc2)C(=O)/C1=C/c1ccc(Br)o1`: the inhibitory constant (Ki) is 12.1 µM.
The result for `CCOC(=O)c1[nH]nc2c1C(=O)N(c1ccc(Br)cc1)C2=O` reads 2.64 µM; that for `S=C(Nc1ccc2c(c1)oc1ccccc12)Nc1cccc2ccccc12`, 2.94 µM.
As for `COc1ccc(N2C(=O)/C(=C/c3ccc(I)o3)C(=O)NC2=S)cc1`, the figure is 4.44 µM; as for `Cc1ccc(C)n1-c1ccc(C(=O)O)c(O)c1`, 12.8 µM.
The result for `O=C1c2cccc3c4ccccc4n(c23)C(=O)C1(O)O` reads 13.8 µM.

For the origin of these results see PubChem BioAssay AID2004 (Sanford-Burnham Center for Chemical Genomics, 2009).
